In brackets after ≈: the same amount, converted by molar mass.
Assay: Water solubility
Conditions: relative to trolox (0.1 g/L)

| Molecule | fold increase in water solubility relative to trolox |
| --- | --- |
| 6-Hydroxy-2,5,7,8-tetramethylchromane-2-carboxylate 1-oxyl-2,2,5,5-tetramethylpirrolidin-4-ammonium [2h] | 20 fold |
| 6-Hydroxy-2,5,7,8-tetramethylchromane-2-carboxylate, 3-(3,4-dimethoxybenzoate)-8-ammoniybicyclo[3.2.1]octane [2m] | 20–590 fold |
| Cc1c(C)c2c(c(C)c1O)CCC(C)(C(=O)O)O2.O=c1cccc2n1CC1CNCC2C1 (stereo not drawn) [2l, 6-Hydroxy-2,5,7,8-tetramethylchromane-2-carboxylate, 1,2,3,4,5,6-hexahydro-1,5-methano-8H-pyridinium-[1,2-α][1,5]-diazotsin-8-one] | 20–590 fold |
| 6-Hydroxy-2,5,7,8-tetramethylchromane-2-carboxylate 1-oxyl-2,2,6,6-tetramethylpiperidine-4-ammonium [2g] | 10 fold |
| 6-Hydroxy-2,5,7,8-tetramethylchromane-2-carboxylate, 4-(N-acetylantranoiloxy)-8,9-dihydroxy-1α,14α,16β-trimethoxy-N-ethylammonium-18-norakonan [2p] | 20–590 fold |
| 6-Hydroxy-2,5,7,8-tetramethylchromane-2-carboxylate, 1-(1H-indol-3-yl)-N,N-dimetilmetanammonium [2q] | 20–590 fold |

Same assay, conditions: water, thermodynamic from solid

| Molecule | solubility at 10 min |
| --- | --- |
| Cc1c(C)c2c(c(C)c1O)CCC(C)(C(=O)O)O2 (centres unmarked) [compound 1, 6-hydroxy-2,5,7,8-tetra methyl chromane-2-carboxylic acid, reference compound] | 100 µg/mL (≈ 400 µM) |
| CCN(CC)CC.Cc1c(C)c2c(c(C)c1O)CCC(C)(C(=O)O)O2 (centres unmarked) [2n, 6-Hydroxy-2,5,7,8-tetramethylchromane-2-carboxylate, triethylammonium] | 3000 µg/mL |

— PMC5783810 (Saudi Pharmaceutical Journal : SPJ, 2017)
